Source: patent US20240156856A1, “NOVEL APPLICATIONS OF HYALURONIC ACID FOR TREATMENT OF PAIN AND PRURITIS” (THE REGENTS OF THE UNIVERSITY OF CALIFORNIA, priority 2022, published 2024)

System: rats with paclitaxel CIPN
Assay: Paclitaxel CIPN mechanical hyperalgesia, Randall-Selitto paw-withdrawal test
Assay type: in vivo, Sprague-Dawley rats
Procedure: Experimental animals. Experiments were performed on 220-400 g male and female Sprague-Dawley rats, purchased from Charles River Laboratories (Hollister, CA, USA), housed three per cage, under a 12-hour light/dark cycle, in a temperature- and humidity-controlled animal care facility at the University of California, San Francisco. Food and water were available ad libitum. Experimental protocols were approved by the University of California, San Francisco, Institutional Animal Care and Use Committee, and adhered to the National Institutes of Health Guidelines for the care and use of laboratory animals.
Measurement of nociceptive threshold. Mechanical nociceptive threshold was quantified with an Ugo Basile Analgesymeter (Stoelting, Wood Dale, IL, USA), used to perform the Randall-Selitto paw-withdrawal test [61; 68; 69]. This device uses a dome-shaped plinth to apply a mechanical force that increases linearly with time, to the dorsum of a rat's hindpaw. To perform the Randall-Selitto paw-withdrawal test, rats were placed in cylindrical acrylic restrainers with lateral ports that allow access to the hind paw, as described previously. Rats were acclimatized to the testing procedure by placing them in restrainers for 1 h per day for 3 consecutive daily training sessions, and for 30-40 min prior to experiments.
Mechanical nociceptive threshold is defined as the force, in grams, applied by the plinth to the dorsum of the hindpaw, at which a rat withdraws its paw from the stimulus. Baseline paw-withdrawal threshold is defined as the mean of three readings taken before administration of test agents. To minimize experimenter bias, individuals conducting experiments were blinded to experimental treatments. Each experiment was performed on a different group of rats. Data are presented as mechanical nociceptive threshold, in grams (g) or percentage change from preintervention baseline.
Hyaluronans were initially dissolved in distilled water (dH2O) at a concentration of 10 μg/μL, stock solution, and further diluted by adding DMSO with three final concentrations of hyaluronan (1, 2 and 4 μg/μL), protamine or terpene; unless otherwise stated, the final concentration of DMSO was 75%. The DMSO vehicle was 75% DMSO in 0.9% saline. In one experiment, 500-1200 kDa hyaluronan was administered topically in 0.9% saline vehicle. PGE2 was dissolved in 0.9% saline at the same final concentration that we previously injected intradermally (100 ng/5 μL). In the experiments in which hyaluronan was dissolved in protamine or terpene vehicle, protamine was first dissolved in distilled water (dH2O) to a concentration of 5 μg/μ1, stock solution of hyaluronan was combined with protamine at the final concentration of 2 μg/μ1, in a volume of 3 μl, for topical administration; terpene was first dissolved in dH2O at the concentration of 2 μg/μ1, then hyaluronan was dissolved in stock solution of terpene to its final concentration of 2 μg/μ1, in a volume of 3 μl, for topical administration).
Paclitaxel CIPN: Paclitaxel was dissolved in Cremophor EL and ethanol (1:1) [1; 6; 20; 22] and diluted in 0.9% saline to a concentration of 1 mg/mL, just prior to its intraperitoneal (i.p.) administration (1 mg/kg, i.p.) [19; 42] to rats briefly anesthetized with isoflurane (2.5% in O2), every other day for a total of 4 doses.
Hyaluronans (30 μL) were administered topically on the dorsum of the hind paw, dispensed from a P200 pipette (Gilson, Middleton, WI, USA) with a plastic pipette tip and then spread manually.
Antisense oligodeoxynucleotides (ODNs).
Before use, ODNs were reconstituted in nuclease-free 0.9% saline and then administered by the intrathecal (i.t.) route. As described previously, rats were anesthetized with isoflurane (2.5% in O2) and 120 μg of ODN, in a volume of 20 μL, injected i.t., using a syringe ([…]) attached to a 29-gauge hypodermic needle that was inserted into the subarachnoid space, between the L4 and L5 vertebrae. […]

hyaluronan [500-1200 kDa hyaluronan]
hyperalgesia induced by paclitaxel (female rats given i.t. GPR30 antisense or mismatch ODN, topical 2 μg/μL, 30 μL): only attenuated the hyperalgesia induced by paclitaxel in the GPR30 antisense-treated group | hyperalgesia induced by paclitaxel (gonad intact female rats, topical 2 μg/μL, 30 μL in DMSO vehicle): did not attenuate hyperalgesia | hyperalgesia induced by paclitaxel (male rats given i.t. CD44 antisense or mismatch ODN, topical 2 μg/μL, 30 μL in DMSO): attenuated the hyperalgesia induced by paclitaxel only in the CD44 mismatch-treated group | time at which anti-hyperalgesia was still present after the second administration (male rats, reapplied at the same site after first effect wore off, DMSO vehicle): ≥ 180 min | hyperalgesia induced by paclitaxel (male rats, topical 2 μg/μL, 30 μL in DMSO, day 7): attenuated the hyperalgesia induced by paclitaxel | time by which anti-hyperalgesia dissipated, first administration (male rats, topical 2 μg/μL, 30 μL in DMSO, repeated-administration experiment): ≤ 120 min | anti-hyperalgesia in paclitaxel-induced CIPN (ovariectomized female rats, topical 2 μg/μL, 30 μL in DMSO): induced anti-hyperalgesia of similar magnitude to that observed in gonad intact male rats
